Calls of active or inactive are those of the source. No cut-off for these calls is given here.

For data set [1], the system named is Candida albicans. Kind of data set: Antifungal activity against Candida albicans PC31 at 1.25 mg/ml after 48 hr. Format: functional, organism-based.
Data set [2] deals with Candida albicans. Kind of data set: Antifungal activity against Candida albicans PC31 at 0.15 mg/ml after 48 hr. Format: functional, organism-based.
Data set [3] concerns Candida albicans. Kind of data set: Antifungal activity against Candida albicans PC31 at 0.60 mg/ml after 48 hr. Format: functional, organism-based.
Data set [4] has as its system Candida albicans. Kind of data set: Antifungal activity against Candida albicans PC31 at 1.90 mg/ml after 48 hr. Format: functional, organism-based.
In data set [5] the test system is Candida albicans. Description: Antifungal activity against Candida albicans PC31 at 1.60 mg/ml after 48 hr. In kind it is functional, organism-based.
Data set [6] concerns Candida albicans. Description: Antifungal activity against Candida albicans PC31 at 2.20 mg/ml after 48 hr. Format: functional, organism-based.
The subject of data set [7] is Candida albicans. Kind of data set: Antifungal activity against Candida albicans PC31 at 0.30 mg/ml after 48 hr. Format: functional, organism-based.
Data set [8] in a line: 1-octanol-water partition coefficient, log P of the compound. Format: physicochemical.
For data set [9], the system named is Candida albicans. Description: Antifungal activity against Candida albicans PC31 at 0.06 mg/ml after 48 hr. In kind it is functional, organism-based.
The subject of data set [10] is Candida albicans. Kind of data set: Antifungal activity against Candida albicans PC31 at 2.50 mg/ml after 48 hr. In kind it is functional, organism-based.
Data set [11] has as its system Candida albicans. Kind of data set: Antifungal activity against Candida albicans PC31 at 0.50 mg/ml after 48 hr. Format: functional, organism-based.
Data set [12] has as its system Candida albicans. Description: Antifungal activity against Candida albicans PC31 at 1.30 mg/ml after 48 hr. Format: functional, organism-based.
The subject of data set [13] is Candida albicans. Description: Antifungal activity against Candida albicans PC31 at 2.10 mg/ml after 48 hr. In kind it is functional, organism-based.
Data set [14] relates to Candida albicans. Kind of data set: Antifungal activity against Candida albicans PC31 at 0.40 mg/ml after 48 hr. In kind it is functional, organism-based.

With `O=c1c(O)c(-c2ccc(O)c(Oc3c([N+](=O)[O-])cc(C(F)(F)F)cc3[N+](=O)[O-])c2)oc2cc(O)cc(O)c12`, the outcome with Candida albicans [1], in the data set with Candida albicans [3], with Candida albicans [4], in the data set on Candida albicans [5], with Candida albicans [6] and in the data set on Candida albicans [10] was Active. The outcome in the data set with Candida albicans [12] and with Candida albicans [13] was Active. The result with Candida albicans [2], in the data set with Candida albicans [7], with Candida albicans [9], in the data set on Candida albicans [11] and with Candida albicans [14] was inactive. The same compound displayed a logP in data set [8] of 0.62.

Consider `C[C@@H]1O[C@@H](OC[C@H]2O[C@@H](Oc3c(-c4ccc(O)c(O)c4)oc4cc(O)cc(O)c4c3=O)[C@H](O)[C@@H](O)[C@@H]2O)[C@H](O)[C@H](O)[C@H]1O` [RUTIN], for which the result in the data set on Candida albicans [1], with Candida albicans [2], in the data set with Candida albicans [3], in the data set on Candida albicans [4], in the data set on Candida albicans [5] and in the data set on Candida albicans [7] was inactive. The result in the data set with Candida albicans [9], with Candida albicans [11], with Candida albicans [12], in the data set with Candida albicans [13] and in the data set on Candida albicans [14] was inactive. Further, the outcome with Candida albicans [6] and with Candida albicans [10] was Active. In data set [8], this compound gave a logP of 0.31.
